These results are taken from patent EP0970067B1, “(METHYLSULFONYL)PHENYL-2-(5H)-FURANONES WITH OXYGEN LINK AS COX-2 INHIBITORS” (Merck Frosst Canada & Co., priority 1997, dated 1998).

The target of test [1] is T1, COX-2 (Homo sapiens, UniProt P35354).
T1 sequence (P35354 18-604): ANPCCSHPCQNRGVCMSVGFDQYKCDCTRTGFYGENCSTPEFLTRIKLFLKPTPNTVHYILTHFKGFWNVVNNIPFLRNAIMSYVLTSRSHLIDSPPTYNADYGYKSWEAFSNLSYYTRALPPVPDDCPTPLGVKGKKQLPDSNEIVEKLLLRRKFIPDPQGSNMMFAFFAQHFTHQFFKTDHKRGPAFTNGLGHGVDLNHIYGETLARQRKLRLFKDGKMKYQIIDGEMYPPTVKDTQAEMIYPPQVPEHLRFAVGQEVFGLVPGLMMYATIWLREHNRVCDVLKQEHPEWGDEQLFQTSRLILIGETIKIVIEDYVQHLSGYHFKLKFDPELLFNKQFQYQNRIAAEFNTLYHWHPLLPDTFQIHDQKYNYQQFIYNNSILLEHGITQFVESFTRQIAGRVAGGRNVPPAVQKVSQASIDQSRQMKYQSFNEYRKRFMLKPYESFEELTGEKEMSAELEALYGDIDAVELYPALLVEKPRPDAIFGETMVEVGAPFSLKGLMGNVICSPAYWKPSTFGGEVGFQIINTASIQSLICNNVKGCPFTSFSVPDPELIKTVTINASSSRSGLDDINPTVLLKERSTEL
Nature of the test: Human whole blood assay, COX-2 (LPS-induced PGE2 production). It counts as cell-based. More on the design: endogenous in cells; host or cells: fresh heparinized human whole blood from volunteers, stimulated with LPS. The conditions noted are these: LPS 100 µg/ml, 24 hours at 37°C, read-out: COX-2 (IC50) HWB. The text has this: As well, platelets in whole blood contain a large amount of the COX-1 enzyme. Immediately following blood clotting, platelets are activated through a thrombin-mediated mechanism. This reaction results in the production of thromboxane B2 (TxB2) via activation of COX-1. Thus, the effect of test compounds on TxB2 levels following blood clotting can be examined and used as an index for COX-1 activity. Therefore, the degree of selectivity by the test compound can be determined by measuring the levels of PGE2 after LPS induction (COX-2) and TxB2 following blood clotting (COX-1) in the same assay.
Fresh blood is collected in heparinized tubes by venipuncture from both male and female volunteers. The subjects have no apparent inflammatory conditions and have not taken any NSAIDs for at least 7 days prior to blood collection. Plasma is immediately obtained from a 2mL blood aliquot to use as blank (basal levels of PGE2). The remaining blood is incubated with LPS (100 µg/ml final concentration, Sigma Chem, #L-2630 from E. coli; diluted in 0.1% BSA (Phosphate buffered saline) for 5 minutes at room temperature. Five hundred µL aliquots of blood are incubated with either 2µL of vehicle (DMSO) or 2µL of a test compound at final concentrations varying from 10nM to 30µM for 24 hours at 37°C. At the end of the incubation, the blood is centrifuged at 12,000 x g for 5 minutes to obtain plasma. A 100µL aliquot of plasma is mixed with 400µL of methanol for protein precipitation. The supernatant is obtained and is assayed for PGE2 using a radioimmunoassay kit (Amersham, RPA#530) after conversion of PGE2 to its methyl oximate derivative according to the manufacturer's procedure.

Test [2] addresses T1, COX-2. Nature of the test: Whole cell COX-2 assay using CHO transfected cell line (PGE2 radioimmunoassay). It counts as cell-based. To be noted: CHO [hCOX-2] cells; PGE2 synthesis in response to arachidonic acid. More on the design: expressed in transfected cells; host or cells: CHO [hCOX-2], stably transfected with pCDNAIII. As to the method: Compounds are tested as inhibitors of cyclooxygenase activity in whole cell cyclooxygenase assays. These assays measure prostaglandin E2 synthesis in response to arachidonic acid, using a radioimmunoassay. Cells used for these assays are chinese hamster ovary (CHO) cell lines which have been stably transfected with an eukaryotic expression vector […] containing either the human Cox-1 or Cox-2 CDNA's. U937 cell microsomes are also used to measure Cox-1 activity.
Chinese hamster ovary (CHO) cell lines which have been stably transfected with an eukaryotic expression vector pCDNAIII containing either the human COX-1 or COX-2 cDNA's are used for the assay. These cell lines are referred to as CHO [hCOX-1] and CHO [hCOX-2], respectively. For cyclooxygenase assays, CHO[hCOX-1] cells from suspension cultures and CHO[hCOX-2] cells prepared by trypsinization of adherent cultures are harvested by centrifugation (300 x g, 10 min) and washed once in HBSS containing 15 mM HEPES, pH 7.4, and resuspended in HBSS, 15 mM HEPES, pH 7.4, at a cell concentration of 1.5 x 10^6 cells/ml. Drugs to be tested are dissolved in DMSO to 66.7-fold the highest test drug concentration. […] Cells (0.3 x 10^6 cells in 200 µl) are preincubated with 3 µl of the test drug or DMSO vehicle for 15 min at 37°C. Working solutions of peroxide-free AA (5.5 µM and 110 µM AA for the CHO [hCOX-1] and CHO [COX-2] assays, respectively) are prepared by a 10-fold dilution of a concentrated AA solution in ethanol into HBSS containing 15 mM HEPES, pH 7.4.
In the assay, inhibition is determined by measuring the amount of prostaglandin E2 (PGE2) synthesized in the presence of arachidonic acid, cyclooxygenase-1 or cyclooxygenase-2 and a putative inhibitor.

Molecules are shown by their SMILES.

Take `C=CCOC1=C(c2ccc(S(C)(=O)=O)cc2)C(C)(C)OC1=O` [Example 15, 3-(Allyloxy)-5,5-dimethyl-4-(4-methylsulfonylphenyl)-5H-furan-2-one]: the values for the IC50 at COX-2 [1] and against COX-2 [2] were 1.8 µM and 0.2 µM, respectively.

Turning to `C=C(C)OC1=C(c2ccc(S(C)(=O)=O)cc2)C(C)(C)OC1=O` [Example 7, 3-(Isopropenyloxy)-5,5-dimethyl-4-(4-methylsulfonylphenyl)-5H-furan-2-one], the 50% inhibitory concentration (IC50) (usually the concentration that inhibits the measured activity by half) at COX-2 [1] came to 2.1 µM; against COX-2 [2], 0.07 µM.

Take `C[C@H](CO)COC1=C(c2ccc(S(C)(=O)=O)cc2)C(C)(C)OC1=O` [Example 9, 3-(((2R)-3-hydroxy-2-methylpropyl)oxy)-5,5-dimethyl-4-(4-methylsulfonylphenyl)-5H-furan-2-one]: the IC50 at COX-2 [1] is under 0.4 µM; against COX-2 [2], 0.4 µM.

For `C=C(CF)COC1=C(c2ccc(S(C)(=O)=O)cc2)C(C)(C)OC1=O` [Example 20, 3-{[2-(fluoromethyl)allyl]oxy}-5,5-dimethyl-4-(4-methylsulfonyl-phenyl)-5H-furan-2-one], the results for the IC50 at COX-2 [1] and at COX-2 [2] were 0.6 µM and 0.2 µM, respectively.

Consider `C=C(C)COC1=C(c2ccc(S(C)(=O)=O)cc2)C(C)(C)OC1=O` [Example 18, 5,5-dimethyl-3-(2-methylallyloxy)-4-(4-methylsulfonylphenyl)-5H-furan-2-one], for which, at COX-2 [1], the 50% inhibitory concentration (IC50) was under 0.4 µM.

Consider `CC1(C)OC(=O)C(OC2CCCC2(F)F)=C1c1ccc(S(C)(=O)=O)cc1` (stereo not drawn) [Example 25], for which the IC50 on COX-2 [1] is under 0.4 µM.

As to `C#CCOC1=C(c2ccc(S(C)(=O)=O)cc2)C(C)(C)OC1=O` [Example 14, 5,5-Dimethyl-4-(4-methylsulfonylphenyl)3-(2-propynyloxy)-5H-furan-2-one], the half-maximal inhibitory concentration (IC50) at COX-2 [1] was 5.1 µM; against COX-2 [2], 0.5 µM.

For the molecule `CC1(C)OC(=O)C(OCC2(CO)CC2)=C1c1ccc(S(C)(=O)=O)cc1` [Example 21, 3-{[1-(hydroxymethyl)cyclopropyl]methoxy}-5,5-dimethyl-4-(4-methylsulfonylphenyl)-2-5H-furan-2-one], the IC50 is 0.9 µM at COX-2 [1] and 0.6 µM on COX-2 [2].

In the case of `CC1(COC2=C(c3ccc(S(C)(=O)=O)cc3)C(C)(C)OC2=O)CC1` [Example 19, 5,5-Dimethyl-3-[(1-methylcyclopropyl)methoxy]-4-(4-methylsulfonyl-phenyl)-5H-furan-2-one], the IC50 on COX-2 [1] is under 0.4 µM.

With `CC(CO)OC1=C(c2ccc(S(C)(=O)=O)cc2)C(C)(C)OC1=O` (stereo not drawn) [Example 12, 3-(2-Hydroxy-1-methylethoxy)-5,5-dimethyl-4-(4-methylsulfonyl-phenyl)-5H-furan-2-one], the results for the IC50 on COX-2 [1] and on COX-2 [2] were 4.7 µM and 0.5 µM, respectively.

For the molecule `CC1(C)OC(=O)C(OC2CCC3(CC2)OCCO3)=C1c1ccc(S(C)(=O)=O)cc1` [Example 16, 3-(1,4-dioxaspiro[4.5]dec-8-yloxy)-5,5-dimethyl-4-(4-methylsulfonyl-phenyl)-5H-furan-2-one], inhibition at COX-2 [2] was half-maximal at 0.4 µM (IC50).

Regarding `C=CC(C)OC1=C(c2ccc(S(C)(=O)=O)cc2)C(C)(C)OC1=O` (stereo not drawn) [Example 1, 5,5-Dimethyl-3-((1-methylallyl)oxy)-4-(4-methylsulfonylphenyl)-5H-furan-2-one], the IC50 was found to be 1.9 µM on COX-2 [1] and 0.05 µM against COX-2 [2].

With `C=CC(C)(O)COC1=C(c2ccc(S(C)(=O)=O)cc2)C(C)(C)OC1=O` (stereo not drawn) [Example 5, 3-((2-hydroxy-2-methyl-3-butenyl)oxy)-5,5-dimethyl-4-(4-methyl-sulfonyl)phenyl-5H-furan-2-one], the figures for the IC50 at COX-2 [1] and on COX-2 [2] were 0.6 µM and 0.08 µM, respectively.

On to `CC1(C)OC(=O)C(OC2CCCC2=O)=C1c1ccc(S(C)(=O)=O)cc1` (stereo not drawn) [Example 24, 3-((2-oxocyclopentyl)oxy)-5,5-dimethyl-4-(4-methylsulfonylphenyl)-5H-furan-2-one], for which the IC50 at COX-2 [1] came out at 0.8 µM; against COX-2 [2], 0.4 µM.
